US5610025A, “Inhibition of interfering endogenous enzyme activity in assays of biological fluids” (Actimed Laboratories, Inc., priority 1993, dated 1997)
Values joined by “and” are separate entries in the source; they are usually repeats but may differ in a detail not shown here. Equal entries are not always repeated. Structures can show the parent of a compound that is named as a salt.

Assays:
Format in all cases: biochemical
catalase [1] = target: T1, catalase (Homo sapiens, UniProt P04040); assay: Catalase inhibitor screening, aqueous hydrogen peroxide samples with added catalase, dye indicator/peroxidase system, absorbance at 514 nm
T1 sequence (P04040 2-527 limits assumed): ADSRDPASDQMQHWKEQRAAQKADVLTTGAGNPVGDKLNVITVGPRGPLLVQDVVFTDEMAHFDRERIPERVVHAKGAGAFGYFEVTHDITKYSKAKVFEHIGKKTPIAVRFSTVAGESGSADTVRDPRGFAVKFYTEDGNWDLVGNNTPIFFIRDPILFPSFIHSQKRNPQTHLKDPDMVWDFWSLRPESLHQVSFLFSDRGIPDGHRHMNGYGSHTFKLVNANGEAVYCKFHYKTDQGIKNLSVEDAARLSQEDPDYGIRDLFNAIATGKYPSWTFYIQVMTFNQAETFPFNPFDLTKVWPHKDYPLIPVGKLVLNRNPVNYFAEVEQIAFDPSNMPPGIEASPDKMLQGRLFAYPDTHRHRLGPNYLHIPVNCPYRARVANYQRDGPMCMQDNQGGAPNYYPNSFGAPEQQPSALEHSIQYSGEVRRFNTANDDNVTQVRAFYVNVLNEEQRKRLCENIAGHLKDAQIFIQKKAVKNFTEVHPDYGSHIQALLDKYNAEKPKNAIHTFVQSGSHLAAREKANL

catalase [2] = target: T1, catalase; assay: Catalase inhibitor screening, aqueous cholesterol sample 50 mg/dL with catalase, reporter system Primaquine/MBTH; conditions: aqueous cholesterol 50 mg/dL with catalase, inhibitor 0.5 mM
Method: (§1) The inhibitors were added along with the extra catalase, and spectrophotometric measurements at 514 nm were obtained.
(§2) The percent recovery of absorbance is defined as follows: [formula]
(§3) In the following tables, the concentrations of inhibitor substances are expressed as the final concentration in the reaction system after accounting for dilution factors.

catalase [3] = target: T1, catalase; assay: Catalase inhibitor screening, plasma cholesterol sample with catalase, reporter system Primaquine/MBTH; conditions: inhibitor 0.5 mM
Method: as §1, §2, §3

## O=[N+]([O-])[O-].O=[N+]([O-])[O-].[Cu+2] [Cupric nitrate]
Catalase [1]
  % Recovery (of absorbance): 85%

## CCO [Ethanol]
Catalase [1]
  % Recovery (of absorbance): 6%

## Cl.NO [Hydroxylamine HCl]
Catalase [1]; HCl
  % Recovery (of absorbance): 96% and 95% and 91% and 92%
Catalase [2]
  % Recovery (of absorbance): 98%
Catalase [3]
  % Recovery (of absorbance): 98%

## NO.NO.O=S(=O)(O)O [Hydroxylamine sulfate]
Catalase [1]
  % Recovery (of absorbance): 99% and 95% and 90% and 97% and 91%
Catalase [2]
  % Recovery (of absorbance): 96%
Catalase [3]
  % Recovery (of absorbance): 99%

## CO [Methanol]
Catalase [1]
  % Recovery (of absorbance): 7%

## [Cl][Ni][Cl] [Nickel (II) chloride]
Catalase [1]
  % Recovery (of absorbance): 60%

## Oc1cccc(O)c1 [Resorcinol]
Catalase [1]; peroxide with catalase, inhibitor concentration 0.5 mM
  % Recovery (of absorbance): 50%
Catalase [1]; peroxide with catalase, inhibitor concentration 5 mM
  % Recovery (of absorbance): 57%
Catalase [1]; peroxide with catalase, inhibitor concentration 40 mM
  % Recovery (of absorbance): 79%

## [N-]=[N+]=[N-] [Sodium azide]
Catalase [1]
  effectiveness as inhibitor of catalase activity (in words): most effective inhibitors of catalase activity

## [F-].[Na+] [Sodium fluoride]
Catalase [1]
  % Recovery (of absorbance): 7%

## O=CO [Sodium formate]
Catalase [1]
  % Recovery (of absorbance): 8%

## O=NO [Sodium nitrite]
Catalase [1]
  % Recovery (of absorbance): 30%
